Experimental data taken from patent US20230356105A1, “TETRAAZADODECANE BASED CHELATING AGENTS FOR SEPARATION OF RARE EARTH ELEMENTS AND METHOD THEREFOR” (Ustav Organicke Chemie a Biochemie AV CR V.V.I., priority 2020, published 2023).
Several values for one entry are separate records, joined by “and”; a condition that tells them apart may be missing. Identical values can stand only once.

Tests used:
[1] = Separation of Nd/Pr mixture by repeated precipitation using L5 and α-HIBA (Example 19); assay type: physicochemical; settings: for Precipitate concentration [mM] Nd / precipitate concentration [mM] Pr: dissolved to 200 μL
Protocol: Stock solutions were pipetted into 4 mL glass vials to prepare reaction mixtures with concentrations as follows: • 1. 11 mM (1.1 eq) chelator L5 • 2. 5 mM (0.5 eq) PrCl3 • 3. 5 mM (0.5 eq) NdCl3 • 4. […] (4 eq) α-HIBA pH=6.5 • 5. 500 mM (50 eq) MOPS pH=7
Three aqueous reaction mixtures, numbered 1-3, were prepared with a total volume of 2 mL each and were treated identically throughout the process. A PTFE-coated magnetic stir bar was added to each and the reaction mixtures were stirred on a magnetic stirrer overnight at room temperature. After 18 hours, a 200 μL aliquot of the resulting suspension was taken from each vial and labelled as Al, A2, or A3, according to the reaction mixture number it was taken from. The aliquots were then centrifuged in a plastic Eppendorf centrifuge tube. The supernatant was carefully pipetted from each and transferred to a new set of tubes. To the precipitate was added 200 μL 1 M HCl and the mixture was stirred until full dissolution (about 1 hour at room temperature). The Nd and Pr content of these precipitate and supernatant samples was determined by ICP-OES. The remaining 1800 μL of reaction mixture were centrifuged in plastic Eppendorf centrifuge vials, and the supernatant was set aside. A sample of the supernatant was analysed on HPLC-MS and peak areas were compared to those of a standard 10 mM chelate solution; this allowed for calculation of the approximate concentration of chelate remaining in solution, and therefore of the quantity of chelate which had precipitated. The total volume for subsequent reactions was scaled according to this information, such that the concentration of chelate in solution prior to precipitation was 10 mM, even as the net quantity of chelate present was reduced. The precipitate, then, was dissolved by addition of 25 molar equivalents of 1 M HCl and transferred to a clean 4 mL glass vial with a PTFE-coated magnetic stir bar. 4 molar equivalents of a-HIBA were added to this vial, followed by 50 molar equivalents 3 M MOPS pH=7, the necessary calculated volume of water, and 25 molar equivalents 2 M NaOH to finish neutralising the reaction mixture. (The final reaction volume here was not so important as the final reaction concentrations.) The reaction mixtures were again stirred on a magnetic stirrer at room temperature overnight. After 18 hours, the resulting suspensions were treated in the same manner as before, with 200 μL aliquots (labelled as B1, B2, B3) taken for ICP-OES determination of the Nd and Pr content of the precipitate and supernatant. The remaining 1600 μL of reaction mixture were centrifuged, and the supernatant was analysed by HPLC-MS; the precipitate was treated as before to again yield a reaction solution with an initial concentration of 10 mM of chelate. The reaction mixtures were stirred overnight for the third repetition of processing, and 200 μL aliquots (C1, C2, C3) were again treated for ICP-OES determination of Nd and Pr content in the precipitate and supernatant after 18 hours. The resulting absolute concentrations of both metals in the supernatants and precipitates, as well as calculated values of the separation factor Nd/Pr according to the formula from Example 11), are summarized in Table 13. […] The average separation factor was 1.69.

[2] = Separation of Nd/Pr/Tb/Dy mixture by precipitation using L5 and α-HIBA (Example 23); assay type: physicochemical
Protocol: These aqueous reaction mixtures, each prepared to a total volume of 1.5 mL with the addition of water as necessary, were mixed by the use of a PTFE-coated stir bar on a magnetic stirrer. The cuvettes were sealed with transparent tape to prevent evaporation overnight. […] The supernatants were carefully pipetted out and transferred to a new set of tubes. […] The absolute concentration of the four metals in each supernatant and precipitate was determined by ICP-OES.

[3] = L5 + α-HIBA, MOPS pH=7, 18 hours, individual samples A, B, C
[4] = L5 + α-HIBA, MOPS pH=7, 18 hours, precipitate dissolved to 500 μL, individual samples A, B, C

O=C(O)CN1CCN(CC(=O)O)CCN(Cc2cccc3ccccc23)CCN(CC(=O)O)CC1 [L5, 2,2′,2″-(10-(naphthalene-1-ylmethyl)-1,4,7,10-tetraazacyklododekane-1,4,7-triyl)triacetic acid]
Supernatant concentration [mM] Nd ([1]; A, 1st precipitation): 1.16 mM and 1.49 mM | supernatant concentration [mM] Pr ([1]; A, 1st precipitation, 20 mM (4 eq) α-HIBA): 0.73 mM and 1.00 mM and 0.72 mM | supernatant concentration [mM] Pr ([1]; A, 1st precipitation, 20 mM (4 eq) α-HIBA, mean): 0.82 mM | Precipitate concentration [mM] Nd ([1]; A, 1st precipitation): 3.34 mM and 3.17 mM and 3.59 mM | precipitate concentration [mM] Pr ([1]; A, 1st precipitation): 3.57 mM and 3.50 mM and 3.83 mM | Precipitate concentration [mM] Nd ([1]; A, 1st precipitation, mean): 3.37 mM | precipitate concentration [mM] Pr ([1]; A, 1st precipitation, mean): 3.63 mM | Supernatant concentration [mM] Nd ([1]; A, 1st precipitation, mean): 1.27 mM | Supernatant concentration [mM] Nd ([1]; B, 2nd precipitation): 0.94 mM and 0.79 mM and 0.88 mM | supernatant concentration [mM] Pr ([1]; B, 2nd precipitation): 0.63 mM and 0.56 mM and 0.58 mM | Precipitate concentration [mM] Nd ([1]; B, 2nd precipitation): 3.81 mM and 3.53 mM and 3.91 mM | precipitate concentration [mM] Pr ([1]; B, 2nd precipitation): 4.45 mM and 4.22 mM and 4.52 mM | Precipitate concentration [mM] Nd ([1]; B, 2nd precipitation, mean): 3.75 mM | precipitate concentration [mM] Pr ([1]; B, 2nd precipitation, mean): 4.40 mM | Supernatant concentration [mM] Nd ([1]; B, 2nd precipitation, mean): 0.87 mM | supernatant concentration [mM] Pr ([1]; B, 2nd precipitation, mean): 0.59 mM | Supernatant concentration [mM] Nd ([1]; C, 3rd precipitation): 0.87 mM and 0.93 mM and 0.75 mM | supernatant concentration [mM] Pr ([1]; C, 3rd precipitation): 0.66 mM and 0.74 mM and 0.56 mM | Precipitate concentration [mM] Nd ([1]; C, 3rd precipitation): 3.70 mM and 3.29 mM and 4.06 mM | precipitate concentration [mM] Pr ([1]; C, 3rd precipitation): 4.70 mM and 4.31 mM and 4.98 mM | Precipitate concentration [mM] Nd ([1]; C, 3rd precipitation, mean): 3.68 mM | precipitate concentration [mM] Pr ([1]; C, 3rd precipitation, mean): 4.66 mM | Supernatant concentration [mM] Nd ([1]; C, 3rd precipitation, mean): 0.85 mM | supernatant concentration [mM] Pr ([1]; C, 3rd precipitation, mean): 0.65 mM | supernatant concentration Dy [2, 3]: 1.73 and 1.38 and 1.65 | supernatant concentration Nd [2, 3]: 1.31 and 0.78 and 0.98 | supernatant concentration Pr [2, 3]: 0.32 and 0.20 and 0.24 | supernatant concentration Tb [2, 3]: 1.22 and 1.00 and 1.17 | precipitate concentration Dy [2, 4]: 1.04 and 0.95 and 1.05 | precipitate concentration Nd [2, 4]: 8.60 and 7.83 and 8.96 | precipitate concentration Pr [2, 4]: 2.30 and 2.08 and 2.40 | precipitate concentration Tb [2, 4]: 1.25 mM (2×) and 1.11 mM | precipitate concentration Dy, average ([2]; average of samples A-C): 1.01 | precipitate concentration Nd, average ([2]; average of samples A-C): 8.46 | precipitate concentration Pr, average ([2]; average of samples A-C): 2.26 | precipitate concentration Tb, average ([2]; average of samples A-C): 1.20 | supernatant concentration Dy, average ([2]; average of samples A-C): 1.59 | supernatant concentration Nd, average ([2]; average of samples A-C): 1.03 | supernatant concentration Pr, average ([2]; average of samples A-C): 0.25 | supernatant concentration Tb, average ([2]; average of samples A-C): 1.13 | % comp of precipitate, Dy ([2]; percent composition of phase): 7.8% | % comp of precipitate, Nd ([2]; percent composition of phase): 65.4% | % comp of precipitate, Pr ([2]; percent composition of phase): 17.5% | % comp of precipitate, Tb ([2]; percent composition of phase): 9.3% | % comp of supernatant, Dy ([2]; percent composition of phase): 39.7% | % comp of supernatant, Nd ([2]; percent composition of phase): 25.7% | % comp of supernatant, Pr ([2]; percent composition of phase): 6.3% | % comp of supernatant, Tb ([2]; percent composition of phase): 28.3%
